From paper PMC7696940, “Effects of Rationally Designed Physico-Chemical Variants of the Peptide PuroA on Biocidal Activity towards Bacterial and Mammalian Cells” (International Journal of Molecular Sciences, 2020)
Converted amounts (≈) assume the structure as drawn. “And” between values parts separate entries of the source, which are not always exact repeats. Equal entries are not always repeated. Where no end group is shown, it is not given here.

What was measured:
S. aureus ATCC25923 = format: cell-based, Staphylococcus aureus; conditions: MHB; for MIC S. aureus, No NaCl: 0 mM NaCl; for MIC S. aureus, No NaCl / MIC S. aureus, With 50mM NaCl / MIC S. aureus, With 100mM NaCl / MIC S. aureus, With 150mM NaCl: triplicate, mode; for MIC S. aureus ATCC25923: 37 °C overnight, A595, mode of three independent experiments
Experimental: (§1) The activity of peptides was determined against the Gram-positive Staphylococcus aureus (ATCC 25923), and the Gram-negative Escherichia coli (ATCC 25922) and Pseudomonas aeruginosa (ATCC 9027) bacteria. Selected peptides were also tested against two clinical isolates of methicillin-resistant Staphylococcus aureus (MRSA), M173525 and M180920, kindly provided by Dr P. B. Ward (Microbiology Department, Austin and Repatriation Medical Centre, Heidelberg West, Victoria, Australia). The Minimum inhibitory concentration (MIC) of peptides was determined by the microtitre broth dilution method, as described in Phillips et al.. Briefly, bacteria were grown in Mueller-Hinton Broth (MHB) at 37 °C overnight with shaking (200 rpm). The cultures were adjusted to 0.5 McFarland turbidity standard (approximately 1 × 10^8 colony forming units (CFU)/mL), then diluted 1:100 in MHB (1 × 10^6 CFU/mL). A total of 75 μL of these suspensions were mixed with 25 μL of peptide solutions (final concentrations 250 to 0.5 μg/mL) and the microtitre plates incubated overnight at 37 °C. Positive growth controls (inoculum and MHB, with no peptide) and sterility controls (0.01% glacial acetic) were also included. Post-incubations, the absorbance of cultures at 595 nm was measured using a microplate reader (POLARstar Omega, Germany). […] To evaluate salt sensitivity of peptides up to physiological levels (150 mM NaCl), overnight cultures of S. aureus and E. coli adjusted to 0.5 McFarland turbidity standard were diluted 1:100 in MHB containing 0, 50, 100 or 150 mM NaCl, and the MICs of peptides determined as above. All tests were conducted in triplicate. The results are shown as the mode of values obtained.

P. aeruginosa ATCC9027 = format: cell-based, Pseudomonas aeruginosa; conditions: MHB, 37 °C overnight, A595; mode of three independent experiments
Experimental: as §1

C. albicans FRR 5580 = format: cell-based, Candida albicans; conditions: PDB, overnight; mode of three independent experiments
Experimental: The assay was carried out as per Alfred et al.. Candida albicans (FRR 5580) was grown in potato dextrose broth (PDB; Difco-BD, Bergen County, NJ, USA) overnight at 30 °C with shaking (200 rpm) until exponential phase, then adjusted to 0.5 McFarland turbidity standard (approximately 1 × 10^6 cells/mL) and diluted 1:200 with PDB to 0.5 − 2 × 10^3 cells/mL. Peptides in 25 μL volumes were mixed with 75 μL of the yeast suspensions. The controls were included as above. The plates were incubated overnight and absorbance was recorded. All the tests were conducted in triplicate.

[1] = tested on: porcine trypsin and proteinase K; assay: Proteases stability assay; format: in vitro ADME, porcine; Tritirachium album; conditions: 1000 µg peptide with 50 µg protease (20:1 w/w), porcine trypsin or proteinase K, PBS pH 7.4, 37 °C, 3 h; read-out activity of supernatant on E. coli and S. aureus; triplicate
Experimental: The effect of two well-studied proteases, porcine trypsin and proteinase K from Tritirachium album, on the activity of peptides was investigated as per Carmona et al.. Briefly, 1000 µg of a peptide was incubated with 50 µg of a protease (20:1 w/w) at 37 °C for 3 h in phosphate buffered saline PBS (pH 7.4). The enzyme activity was then terminated by heating (70 °C, 5 min) and the samples centrifuged at 12,000× g. The activity of the supernatant on E. coli and S. aureus was tested as above, in triplicate.

MRSA M173525 = assay: Inhibition of initial cell attachment (CV and MTT assays); format: cell-based, methicillin-resistant Staphylococcus aureus; conditions: polystyrene, 24 h, 37 °C, triplicate
Experimental: The effects of PuroA and other selected peptides (based on their antibacterial activity) on both the initial cell attachment and 6 h preformed biofilms of MRSA on polystyrene were tested as described by Jadhav et al., at their respective 0.5 × MIC, 1 × MIC, and 2 × MIC concentrations. All tests were conducted in triplicate. For testing the inhibition of initial cell attachment, 100 μL of peptide solutions were added to the microtitre plates, then mixed with 100 μL of M173525 cell suspension (1 × 10^6 CFU/mL, cultured in tryptic soy broth medium (TSB; Oxoid) containing 1% glucose), or 100 μL of sterile MilliQ water as negative control. The plates were incubated at 37 °C for 24 h to allow cell attachment. The biofilm formation was then assessed using CV and MTT assays. […] Peptide solutions (100 μL) were then added, the plates incubated at 37 °C for 1 h and the biofilms assessed.
The assay works as an indicator of attached living and non-living biomass. Indirect assessment of cell attachment of MRSA was estimated using the modified CV assay as per Jadhav et al.. After incubations of the plates (for 24 h or 1 h, as above), the culture medium from each well was removed gently and any non-adherent bacteria removed by washing the plates five times with sterile distilled water (dH2O). The plates were air-dried, then oven-dried at 60 °C for 1 h. The biofilm cells in the wells were stained with 100 μL of 1% CV and incubated for 15 min at room temperature. Excess stain was removed by washing the plates three times with sterile dH2O. Ethanol (95%, 125 µL) was transferred to each well to de-stain the cells. The de-staining solution from each well was then transferred to a new plate and its absorbance measured at 595 nm. The percentage inhibition of biomass formation concentration was calculated as: ((OD595 nm control well without peptide − OD5 95 well with peptide)/OD595 nm control well without peptide) × 100. All tests were conducted in triplicate.
A modified methylthiazotetrazolium (MTT) (3-[4,5-dimethyl thiazol-2-yl]-2, 5-diphenyltetrazolium bromide) reduction assay was used, wherein the blue product (MTT salt reduced to formazan by dehydrogenases) is taken as a respiratory indicator of live cells. Briefly, MTT (Sigma-Aldrich, Gillingham, UK) was dissolved in PBS to 5 mg/mL. After incubations of plates (for 24 h or 1 h, as above), the culture medium was gently removed and the plates air-dried. PBS (100 μL) and MTT (5 µL, 5 mg/mL) were added to each well and the plates incubated for 3 h at 37 °C. The insoluble purple product was dissolved in 100 µL of dimethyl sulphoxide (DMSO, Sigma-Aldrich, Gillingham, UK) and the absorbance measured at 570 nm. The % inhibition of metabolic activity was calculated as: ((OD570 nm control well without peptide − OD570 nm well with peptide)/OD570 nm control well without peptide) × 100. All tests were conducted in triplicate.

| Compound | MIC S. aureus, No NaCl (S. aureus ATCC25923) [µg/mL] | MIC S. aureus, With 50mM NaCl (S. aureus ATCC25923) [µg/mL] | MIC S. aureus, With 100mM NaCl (S. aureus ATCC25923) [µg/mL] | MIC S. aureus, With 150mM NaCl (S. aureus ATCC25923) [µg/mL] | MIC P. aeruginosa ATCC9027 (P. aeruginosa ATCC9027) [µg/mL] | MIC C. albicans FRR 5580 (C. albicans FRR 5580) [µg/mL] | Protease Stability [1] | Percentage of Inhibition of Initial MRSA Cells Attachment, CV (MRSA M173525; 0.5 × MIC) [%] | Percentage of Inhibition of Initial MRSA Cells Attachment, MTT (MRSA M173525; 0.5 × MIC) [%] | Percentage of Inhibition of Initial MRSA Cells Attachment, CV (MRSA M173525; 1 × MIC) [%] | Percentage of Inhibition of Initial MRSA Cells Attachment, MTT (MRSA M173525; 1 × MIC) [%] | Percentage of Inhibition of Initial MRSA Cells Attachment, CV (MRSA M173525; 2 × MIC) [%] | Percentage of Inhibition of Initial MRSA Cells Attachment, MTT (MRSA M173525; 2 × MIC) | MIC S. aureus ATCC25923 (S. aureus ATCC25923) [µg/mL] |
| --- | --- | --- | --- | --- | --- | --- | --- | --- | --- | --- | --- | --- | --- | --- |
| RKRWWRWWKWWKR-NH2 [Peptide P1] | 16 | 16 | 16 | 16 | 16 | 64 | Unstable | 72 ± 3.1 | 92 ± 3.0 | 75 ± 1.9 | 95 ± 2.3 | 78 ± 6.1 | 95 ± 2.5% | – |
| CC(C)[C@H](NC(=O)[C@@H]1CCCN1C(=O)[C@@H](N)Cc1ccccc1)C(=O)N[C@H](C(=O)N[C@@H](Cc1c[nH]c2ccccc12)C(=O)N[C@@H](CCCNC(=N)N)C(=O)N[C@@H](Cc1c[nH]c2ccccc12)C(=O)N[C@@H](Cc1c[nH]c2ccccc12)C(=O)N[C@@H](CCCCN)C(=O)N[C@@H](Cc1c[nH]c2ccccc12)C(=O)N[C@@H](Cc1c[nH]c2ccccc12)C(=O)N[C@@H](CCCCN)C(=O)NCC(N)=O)[C@@H](C)O [PuroA] | 16 (≈ 8.59 µM) | 16 (≈ 8.59 µM) | 32 (≈ 17.2 µM) | 64 (≈ 34.4 µM) | 64 (≈ 34.4 µM) | 125 (≈ 67.1 µM) | Unstable | 70 ± 5.6 | 92 ± 1.5 | 75 ± 4.0 | 95 ± 1.1 | 79 ± 4.5 | 95% and 95 ± 0.5% | 16 (≈ 8.59 µM) |
| WWRWWKWW-NH2 [WW] | 8 | 8 | 8 | 8 | 32 | 64 | Unstable | 71.5 ± 3.5 | 90 ± 2.0 | 73 ± 6.2 | 95 ± 3.1 | 79 ± 7.5 | 96 ± 0.5% | 8 |
| WRWWKWW-NH2 [Peptide W7] | 8 | 8 | 8 | 8 | 32 | 64 | Unstable | 69 ± 3.6 | 90 ± 2.9 | 75 ± 5.0 | 95 ± 4.0 | 76 ± 4.8 | 96 ± 1.5% | 8 |
